The subject of assay [1] is AMO-1 human multiple myeloma tumor cell line. Kind of assay: AMO-1 cell viability assay (CellTiter-Glo, 24 hours). The format is cell-based. Particulars: Homo sapiens, AMO1, 24 h, read-out: AMO-1 Viability IC50 (μM, 10% FBS), 10% FBS, 24 hours of compound treatment. (In general: ATP-based viability assays read luminescence as a measure of living cells.)
Assay [2] has as its system NCI-H929 human multiple myeloma tumor cell line. Kind of assay: NCI-H929 cell viability assay (CellTiter-Glo, 24 hours). The settings on record: Homo sapiens, NCI-H929, 24 h, read-out: H929 Viability IC50 (μM, 10% FBS), 10% FBS, 24 hours of compound treatment. The format is cell-based.
Method: Each concentration was tested in duplicate at least 3 independent times. A luminescent signal proportional to the number of viable cells following 24 hours of compound treatment was determined using the CellTiter-Glo® Luminescent Cell Viability Assay according to the manufacturer's recommendations (Promega Corp., Madison, WI). The plates were read in a Perkin Elmer Envision using a Luminescence protocol. To generate dose response curves the data is normalized to percent viability by setting the averages of the staurosporine (10 μM) and DMSO only control wells to 0% and 100% viability respectively.
A further assay concerns the target GST-MCL-1 (Homo sapiens, UniProt Q07820). Kind of assay: TR-FRET MCL-1 binding assay (competition with probe F-Bak). Put shortly:
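Test compounds, 11 three-fold dilutions from 25 μM final, incubated 2 hours at room temperature with GST-MCL-1, F-Bak probe and Tb-anti-GST antibody. TR-FRET read at 340/35 nm excitation with 520/525 and 495/510 nm emission. Run without human serum and with 10% HS.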

Setting [3] is: MCL-1 Binding Ki (nM, 10% HS), in the presence of 10% HS (human serum).
The mark [4] stands for this setting: without HS, read-out: MCL-1 Binding Ki.

Where two headings read alike, the source gives them in different places.

Chain of GST-MCL-1 (Q07820 whole entry): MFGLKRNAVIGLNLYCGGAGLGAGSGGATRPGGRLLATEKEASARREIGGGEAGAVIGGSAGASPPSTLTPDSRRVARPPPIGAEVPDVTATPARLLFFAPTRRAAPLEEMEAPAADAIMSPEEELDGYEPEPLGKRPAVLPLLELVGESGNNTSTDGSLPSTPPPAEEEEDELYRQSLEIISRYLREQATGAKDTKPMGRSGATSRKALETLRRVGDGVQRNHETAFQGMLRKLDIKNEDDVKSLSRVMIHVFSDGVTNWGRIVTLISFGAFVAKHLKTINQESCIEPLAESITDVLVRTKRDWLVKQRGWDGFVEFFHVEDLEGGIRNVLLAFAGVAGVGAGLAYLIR

A word on the IC50: it is the point on the concentration scale where inhibition reaches its midpoint. Usually Ki stands for the dissociation constant of the complex between target and ligand, obtained from inhibition or displacement. With `Cc1c(Cl)c2c(Cl)c(C)c1-c1c(-c3ccc(F)cc3)sc3ncnc(c13)O[C@@H](C(=O)O)Cc1cc(ccc1OCc1ccnc(-c3ccc(O[C@H]4CO[C@H]5[C@@H]4OC[C@H]5O)cc3)n1)OC[C@@H](CN1CCN(C)CC1)O2` [Example 161, (7R,16R)-19,23-dichloro-1-(4-fluorophenyl)-10-{[2-(4-{[(3S,3aR,6R,6aR)-6-hydroxyhexahydrofuro[3,2-b]furan-3-yl]oxy}phenyl)pyrimidin-4-yl]methoxy}-20,22-dimethyl-16-[(4-methylpiperazin-1-yl)methyl]-7,8,15,16-tetrahydro-18,21-etheno-13,9-(metheno)-6,14,17-trioxa-2-thia-3,5-diazacyclononadeca[1,2,3-cd]indene-7-carboxylic Acid], the IC50 in assay [1] came out at 0.000262 µM; in assay [2], 0.000502 µM. Further, the Ki turned out to be 0.141 nM on GST-MCL-1 (setting [3]) and 0.002 nM at GST-MCL-1 (setting [4]).

Turning to `COCCOCCOCCOc1ccc(COc2ccc3cc2C[C@H](C(=O)O)Oc2ncnc4sc(-c5ccc(F)cc5)c(c24)-c2c(C)c(Cl)c(c(Cl)c2C)O[C@H](CN2CCN(C)CC2)CO3)nc1` [Example 162, (7R,16R)-19,23-dichloro-1-(4-fluorophenyl)-10-[(5-{2-[2-(2-methoxyethoxy)ethoxy]ethoxy}pyridin-2-yl)methoxy]-20,22-dimethyl-16-[(4-methylpiperazin-1-yl)methyl]-7,8,15,16-tetrahydro-18,21-etheno-13,9-(metheno)-6,14,17-trioxa-2-thia-3,5-diazacyclononadeca[1,2,3-cd]indene-7-carboxylic Acid], the IC50 in assay [1] turned out to be 0.012 µM; in assay [2] it was 0.0143 µM. Moreover, the values for the Ki at GST-MCL-1 (setting [3]) and at GST-MCL-1 (setting [4]) were 0.934 nM and 0.159 nM, respectively.

On to `Cc1c(Cl)c2c(Cl)c(C)c1-c1c(-c3ccc(F)cc3)sc3ncnc(c13)O[C@@H](C(=O)O)Cc1cc(ccc1OCc1ccnc(-c3ccc(OC[C@H]4COCCN4C)cc3)n1)OC[C@@H](CN1CCN(C)CC1)O2` [Example 163, (7R,16R)-19,23-dichloro-1-(4-fluorophenyl)-20,22-dimethyl-10-{[2-(4-{[(3R)-4-methylmorpholin-3-yl]methoxy}phenyl)pyrimidin-4-yl]methoxy}-16-[(4-methylpiperazin-1-yl)methyl]-7,8,15,16-tetrahydro-18,21-etheno-9,13-(metheno)-6,14,17-trioxa-2-thia-3,5-diazacyclononadeca[1,2,3-cd]indene-7-carboxylic Acid], for which the IC50 in assay [1] was 0.000399 µM; in assay [2], 0.00134 µM. For the same molecule, the Ki on GST-MCL-1 (setting [3]) was 0.285 nM; at GST-MCL-1 (setting [4]) it was 0.013 nM.

Regarding `Cc1c(Cl)c2c(Cl)c(C)c1-c1c(-c3ccc(F)cc3)sc3ncnc(c13)O[C@@H](C(=O)O)Cc1cc(ccc1OCc1ccnc(-c3ccc(OCCN4C[C@H]5COC[C@H]5C4)cc3)n1)OC[C@@H](CN1CCN(C)CC1)O2` [Example 164, (7R,16R)-19,23-dichloro-1-(4-fluorophenyl)-20,22-dimethyl-16-[(4-methylpiperazin-1-yl)methyl]-10-{[2-(4-{2-[(3aR,6aS)-tetrahydro-1H-furo[3,4-c]pyrrol-5 (3H)-yl]ethoxy}phenyl)pyrimidin-4-yl]methoxy}-7,8,15,16-tetrahydro-18,21-etheno-13,9-(metheno)-6,14,17-trioxa-2-thia-3,5-diazacyclononadeca[1,2,3-cd]indene-7-carboxylic Acid], the IC50 was determined as 0.000416 µM in assay [1] and 0.00147 µM in assay [2]. Moreover, the Ki on GST-MCL-1 (setting [3]) was determined as 0.453 nM; on GST-MCL-1 (setting [4]), 0.061 nM.

Take `Cc1c(Cl)c2c(Cl)c(C)c1-c1c(-c3ccc(F)cc3)sc3ncnc(c13)O[C@@H](C(=O)O)Cc1cc(ccc1OCc1ccnc(-c3ccc(OCCN4CC5(COC5)C4)cc3)n1)OC[C@@H](CN1CCN(C)CC1)O2` [Example 165, (7R,16R)-19,23-dichloro-1-(4-fluorophenyl)-20,22-dimethyl-16-[(4-methylpiperazin-1-yl)methyl]-10-[(2-{4-[2-(2-oxa-6-azaspiro[3.3]heptan-6-yl)ethoxy]phenyl}pyrimidin-4-yl)methoxy]-7,8,15,16-tetrahydro-18,21-etheno-13,9-(metheno)-6,14,17-trioxa-2-thia-3,5-diazacyclononadeca[1,2,3-cd]indene-7-carboxylic Acid]: the IC50 in assay [1] was 0.00353 µM; in assay [2], 0.00856 µM. Moreover, the values for the Ki at GST-MCL-1 (setting [3]) and on GST-MCL-1 (setting [4]) were 0.267 nM and 0.031 nM, respectively.

Take `Cc1c(Cl)c2c(Cl)c(C)c1-c1c(-c3ccc(F)cc3)sc3ncnc(c13)O[C@@H](C(=O)O)Cc1cc(ccc1OCc1ccnc(-c3ccc(CCN4CC5COCC5C4)cc3)n1)OC[C@@H](CN1CCN(C)CC1)O2` (stereo partly drawn) [Example 166, (7R,16R)-19,23-dichloro-1-(4-fluorophenyl)-20,22-dimethyl-16-[(4-methylpiperazin-1-yl)methyl]-10-[(2-{4-[2-(tetrahydro-1H-furo[3,4-c]pyrrol-5 (3H)-yl)ethyl]phenyl}pyrimidin-4-yl)methoxy]-7,8,15,16-tetrahydro-18,21-etheno-9,13-(metheno)-6,14,17-trioxa-2-thia-3,5-diazacyclononadeca[1,2,3-cd]indene-7-carboxylic Acid]: the IC50 in assay [1] came to 0.000927 µM; in assay [2] it was 0.0032 µM. The Ki at GST-MCL-1 (setting [3]) came out at 0.058 nM; on GST-MCL-1 (setting [4]), 0.002 nM.

For `Cc1c(Cl)c2c(Cl)c(C)c1-c1c(-c3ccc(F)cc3)sc3ncnc(c13)O[C@@H](C(=O)O)Cc1cc(ccc1OCc1ccnc(N3C[C@H]4C[C@@H](C3)[C@H]4O)n1)OC[C@@H](CN1CCN(C)CC1)O2` [Example 167, (7R,16R)-19,23-dichloro-1-(4-fluorophenyl)-10-({2-[(1R,5S,6r)-6-hydroxy-3-azabicyclo[3.1.1]heptan-3-yl]pyrimidin-4-yl}methoxy)-20,22-dimethyl-16-[(4-methylpiperazin-1-yl)methyl]-7,8,15,16-tetrahydro-18,21-etheno-13,9-(metheno)-6,14,17-trioxa-2-thia-3,5-diazacyclononadeca[1,2,3-cd]indene-7-carboxylic Acid], the results for the IC50 in assay [1] and in assay [2] were 0.002 µM and 0.00892 µM, respectively. Besides, the results for the inhibition constant (Ki) on GST-MCL-1 (setting [3]) and at GST-MCL-1 (setting [4]) were 0.698 nM and 0.06 nM, respectively.

As to `COCCOCCOc1cc(COc2ccc3cc2C[C@H](C(=O)O)Oc2ncnc4sc(-c5ccc(F)cc5)c(c24)-c2c(C)c(Cl)c(c(Cl)c2C)O[C@H](CN2CCN(C)CC2)CO3)nc(-c2ccccc2OC)n1` [Example 169, (7R,16R)-19,23-dichloro-1-(4-fluorophenyl)-10-({6-[2-(2-methoxyethoxy)ethoxy]-2-(2-methoxyphenyl)pyrimidin-4-yl}methoxy)-20,22-dimethyl-16-[(4-methylpiperazin-1-yl)methyl]-7,8,15,16-tetrahydro-18,21-etheno-13,9-(metheno)-6,14,17-trioxa-2-thia-3,5-diazacyclononadeca[1,2,3-cd]indene-7-carboxylic Acid], the figures for the IC50 in assay [1] and in assay [2] were 0.000306 µM and 0.00115 µM, respectively. In addition, the Ki on GST-MCL-1 (setting [3]) was determined as 0.631 nM; on GST-MCL-1 (setting [4]) it was 0.03 nM.

Turning to `Cc1c(Cl)c2c(Cl)c(C)c1-c1c(-c3ccc(F)cc3)sc3ncnc(c13)O[C@@H](C(=O)O)Cc1cc(ccc1OCc1ccnc(-c3ccc(OCCN4CC5CCC(C4)O5)cc3)n1)OC[C@@H](CN1CCN(C)CC1)O2` [Example 170, (7R,16R)-19,23-dichloro-1-(4-fluorophenyl)-20,22-dimethyl-16-[(4-methylpiperazin-1-yl)methyl]-10-[(2-{4-[2-(8-oxa-3-azabicyclo[3.2.1]octan-3-yl)ethoxy]phenyl}pyrimidin-4-yl)methoxy]-7,8,15,16-tetrahydro-18,21-etheno-13,9-(metheno)-6,14,17-trioxa-2-thia-3,5-diazacyclononadeca[1,2,3-cd]indene-7-carboxylic Acid], the figures for the IC50 in assay [1] and in assay [2] were 0.000646 µM and 0.00278 µM, respectively. In addition, the results for the Ki at GST-MCL-1 (setting [3]) and at GST-MCL-1 (setting [4]) were 1.85 nM and 0.042 nM, respectively.

Consider `Cc1c(Cl)c2c(Cl)c(C)c1-c1c(-c3ccc(F)cc3)sc3ncnc(c13)O[C@@H](C(=O)O)Cc1cc(ccc1OCc1ccnc(N3CC4CC(C4)C3)n1)OC[C@@H](CN1CCN(C)CC1)O2` [Example 171, (7R,16R)-10-{[2-(3-azabicyclo[3.1.1]heptan-3-yl)pyrimidin-4-yl]methoxy}-19,23-dichloro-1-(4-fluorophenyl)-20,22-dimethyl-16-[(4-methylpiperazin-1-yl)methyl]-7,8,15,16-tetrahydro-18,21-etheno-13,9-(metheno)-6,14,17-trioxa-2-thia-3,5-diazacyclononadeca[1,2,3-cd]indene-7-carboxylic Acid], for which the IC50 in assay [1] amounted to 0.00112 µM; in assay [2], 0.00757 µM. The figures for the Ki at GST-MCL-1 (setting [3]) and on GST-MCL-1 (setting [4]) were 3.98 nM and 0.1 nM, respectively.

In the case of `Cc1c(Cl)c2c(Cl)c(C)c1-c1c(-c3ccc(F)cc3)sc3ncnc(c13)O[C@@H](C(=O)O)Cc1cc(ccc1OCc1ccnc(N3C[C@H]4C[C@@H](C3)C4(F)F)n1)OC[C@@H](CN1CCN(C)CC1)O2` [Example 172, (7R,16R)-19,23-dichloro-10-({2-[(1R,5S)-6,6-difluoro-3-azabicyclo[3.1.1]heptan-3-yl]pyrimidin-4-yl}methoxy)-1-(4-fluorophenyl)-20,22-dimethyl-16-[(4-methylpiperazin-1-yl)methyl]-7,8,15,16-tetrahydro-18,21-etheno-13,9-(metheno)-6,14,17-trioxa-2-thia-3,5-diazacyclononadeca[1,2,3-cd]indene-7-carboxylic Acid], the results for the IC50 in assay [1] and in assay [2] were 0.000966 µM and 0.00524 µM, respectively. Also, the Ki on GST-MCL-1 (setting [3]) turned out to be 2.74 nM; on GST-MCL-1 (setting [4]) it was 0.141 nM.

These data come from patent US20250313572A1, “MACROCYCLIC MCL-1 INHIBITORS AND METHODS OF USE” (AbbVie Inc., priority 2017, published 2025).
